# Experiments:
# mKv1.3 channels = target: T1, mKv1.3 channels (Mus musculus, UniProt P16390); test: Whole-cell patch-clamp block of Kv1.3 currents in L929 fibroblasts stably expressing mKv1.3; format: cell-based
# T1 construct: expressed in transfected cells
# Protocol: In the absence of antibodies directed to ShK-235, the inventors used functional assays to identify and quantify ShK-235 expression and secretion into culture supernatants of LrS235. In more detail, the presence of active peptide was assayed by using whole-cell patch-clamp to test the ability of LrS235 supernatants to block Kv1.3 channels in mouse L929 fibroblasts stably expressing mKv1.3 channels. LrS235 and LrGusA were grown to mid-exponential phase and induced for expression of ShK-235 or GusA, and supernatants were processed as described in the materials and methods. […] Culture supernatant from LrS235 and LrGusA was tested for Kv1.3 channel block and the dose-response curve used to calculate the concentration of ShK-235 in supernatants.
# Patch-clamp electrophysiology. To determine the concentration of ShK-235 in the LrS235 supernatants and rat sera, a dose-response of ShK-235 block of Kv1.3 was determined by adding known concentrations of the peptide to naïve rat serum and then testing by whole-cell patch-clamp of mouse L929 fibroblasts stably expressing mKv1.3 channels (45) using a PORT-A-PATCH® automated patch-clamp system (Nanion, Livingston, NJ), as described (16, 46). Culture supernatants and serum samples were then assessed with the same technique, and the dose-response curve was used to determine peptide concentration.
# [1] = test system: Kv1.3 versus Kv1.1 and other ion channels; test: Selectivity for Kv1.3 over other channels by whole-cell patch-clamp; format: cell-based; details: FIG. 5E
# Text: FIGS. 5A-5E. […] FIG. 5A. Whole-cell Kv1.3 currents before (control) and after addition of 100 pM ShK-235. FIG. 5B. Dose-response effects of ShK-235 on Kv1.3 currents (n=4 cells per concentration). FIG. 5C. Dose-response of mKv1.3 block by synthetic ShK-235. N=3 cells per concentration. […] FIG. 5D. Representative traces of the block of mKv1.3 currents by 100 pM synthetic ShK-235. FIG. 5E. Selectivity of ShK-235 against Kv1.x channels determined by whole-cell patch-clamp.
# [2] = Pharmacokinetics following oral or subcutaneous administration in healthy and CIA rats; details: rat, in vivo
# Protocol: Pharmacokinetics following oral or subcutaneous administration of LrS235. Pharmacokinetics following oral or subcutaneous administration of LrS235 are conducted to determine the efficacy of ShK-235 entry into the circulation after its delivery via LrS235, an oral capsule, or subcutaneous injection, and the duration for which the peptide can be detected in the blood after a single bolus or repeated administration to rats with the CIA model of RA. The circulating levels of ShK-235 are quantified with two complementary and well-established techniques, mass spectrometry and single-cell patch-clamp, as the inventors and others have done with ShK, ShK analogs, and other Kv1.3 channel modulators^6,16,37,47-49,65. Tandem liquid chromatography triple quadrupole mass spectrometry (LC-QQQ-MS) is commonly used to rapidly detect and quantify small molecules and peptides for pharmacokinetics. As a complement, single-cell patch-clamp allows for the detection and quantification of functional peptide. This quantitative method (FIG. 9) has a low pM detection limit for the functional peptide. This technique has been validated and used to detect ShK-235 in the circulation of rats administrated the peptide via a capsule or via LrS235 (FIG. 8). […]
# [3] = test system: CIA and PIA rat models of RA; test: Early and late treatment of CIA and PIA by LrS235; details: in vivo
# Text: Early and late treatment of CIA and PIA by LrS235. The objective of these experiments is to define the benefits of LrS235 as an oral delivery system for ShK-235 in reducing joint damage and local and systemic inflammation in rat models of RA and compare its efficacy to that of injected ShK-235 and ShK-235 delivered via an enteric-coated capsule. CIA is induced in Lewis rats by two injections at a week interval of an emulsion of porcine collagen II in incomplete Freund's adjuvant at the base of the tail^36,40,65,66. PIA is induced in DA rats by the single injection of pristane at the base of the tail. Clinical signs of CIA are observed in some aspects 3-6 days after the booster injection and clinical signs of PIA are observed in some aspects 2-3 weeks after the pristane injection. Clinical signs are scored daily based on the number of joints affected and the severity of the swelling, as in FIG. 7A. […]
# Rats start receiving daily treatments either at onset of clinical signs (early treatment), or 10 days later, at peak of disease severity (late treatment). […] Rats are monitored daily for body weight and scored for clinical signs of arthritis using a standard scoring method^36,40,65,66 described in herein (FIG. 7A). […] At the end of the trials, animals are euthanized for collection of blood, hind limbs, inguinal lymph nodes, and small and large intestines, and the following is measured: […]
# T1 sequence (P16390 whole entry): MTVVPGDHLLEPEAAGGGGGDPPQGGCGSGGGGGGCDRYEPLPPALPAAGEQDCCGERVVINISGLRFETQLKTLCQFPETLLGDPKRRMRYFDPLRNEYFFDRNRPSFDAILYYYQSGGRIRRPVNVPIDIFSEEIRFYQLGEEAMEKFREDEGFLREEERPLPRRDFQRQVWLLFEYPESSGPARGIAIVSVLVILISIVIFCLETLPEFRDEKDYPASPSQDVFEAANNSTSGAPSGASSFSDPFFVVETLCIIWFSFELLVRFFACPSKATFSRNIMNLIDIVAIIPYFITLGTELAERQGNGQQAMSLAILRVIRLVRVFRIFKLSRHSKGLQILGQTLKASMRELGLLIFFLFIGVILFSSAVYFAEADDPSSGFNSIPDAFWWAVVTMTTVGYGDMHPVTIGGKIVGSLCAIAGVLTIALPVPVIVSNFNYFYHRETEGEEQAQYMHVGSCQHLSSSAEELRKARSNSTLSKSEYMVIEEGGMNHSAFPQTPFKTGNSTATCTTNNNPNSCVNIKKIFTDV
smiles,measurement,setting,value
CC[C@H](C)[C@@H]1NC(=O)[C@H](CO)NC(=O)[C@H](Cc2c[nH]cn2)NC(=O)[C@H](CCCCN)NC(=O)[C@@H]2CSSC[C@@H]3NC(=O)[C@H]([C@@H](C)O)NC(=O)[C@H](CCCCN)NC(=O)[C@H](CCCNC(=N)N)NC(=O)[C@H](CSSC[C@H](NC(=O)[C@H](CCCNC(=N)N)NC(=O)[C@H](CO)NC(=O)[C@H](CCCCN)NC(=O)[C@@H]4CCCN4C(=O)[C@H]([C@@H](C)CC)NC(=O)[C@H]([C@@H](C)O)NC(=O)[C@H](CC(=O)O)NC(=O)[C@H]([C@@H](C)CC)NC(=O)[C@@H](NC(=O)[C@H](CO)NC(=O)[C@@H](N)CCCNC(=N)N)CSSC[C@@H](C(=O)N[C@@H](C)C(=O)O)NC(=O)[C@H]([C@@H](C)O)NC(=O)CNC3=O)C(=O)N[C@@H]([C@@H](C)O)C(=O)N[C@@H](C)C(=O)N[C@@H](Cc3ccccc3)C(=O)N[C@@H](CCCCN)C(=O)N2)NC(=O)[C@H](Cc2ccccc2)NC(=O)[C@H](CO)NC(=O)[C@H](CC(C)C)NC(=O)[C@H](CCCNC(=N)N)NC(=O)[C@H](Cc2ccc(O)cc2)NC(=O)[C@H](CCCCN)NC1=O [ShK-235],IC50,mKv1.3 channels,0.0693 ± 0.024 nM
same,Selectivity for Kv1.3 over other channels,[1],"≥ 2,200 fold"
same,Detection of ShK-235 in the circulation,[2],detected
same,Effect on incidence and severity of CIA and PIA,[3],reduce the incidence

# — patent publication US20250213627A1, “RECOMBINANT MICROORGANISM-BASED METHODS AND COMPOSITIONS FOR TREATMENT OF DISEASE” (Baylor College of Medicine, priority 2021, published 2025)
